Here are results for 2 molecules from article PMC5563081, “Modulating Protein-Protein Interactions of the Mitotic Polo-like Kinases to Target Mutant KRAS” (Cell Chemical Biology, 2017).

The test system of series [1] is HCT116 (KRAS G13D) xenografts. Description: Xenograft study, tumour volume. The note with it: for Group Mean at Day 15 (tumour volume): HCT116 xenograft, vehicle 778. It counts as in vivo, mouse. The protocol: Male athymic mice were purchased from Harlan (UK) and acclimatised for 7 days prior to study commencement. Animals were housed in IVC cages (5 per cage) with individual mice identified by tail marking. All animals were allowed free access to a standard certified commercial diet and sanitised water during the study. The holding room was maintained under standard conditions: 20-24°C, 40-70% humidity and a 12h light/dark cycle. All experiments were performed under approved ethical and procedural guidelines.
(§1) Tumours were established by sub-cutaneous implantation of 2 x 10^6 HCT116 cells suspended in 50% Matrigel into the flanks of a cohort of mice. When a sufficient number of mice had developed tumours of approximately 100mm3, they were randomly assigned to three groups: Vehicle, 50mg/kg Poloppin-II or 200mg/kg Poloppin-II, with 10 mice per group. Mice were treated orally according to their treatment group once every three days. Tumour volume was measured three times per week with calipers. Body weight was measured three times per week. In addition to mice assigned to tumour volume efficacy arm of the study, 16 mice with established HCT116 xenografts were assigned to either Vehicle or 200mg/kg oral dosing groups, with 8 mice per group. 24 hours after a single dose, mice were euthanised, tumours removed, snap frozen and 30-50microgram of lysates were analysed by Western blotting on 4-12% Bis-Tris acrylamide gels, and transferred using the Invitrogen iBlot dry system. Phospho-Histone H3 was detected using Abcam antibody ab5176, beta-actin with Sigma antibody a5316. […] HRP was visualised with ECL-Plus (GE Healthcare).

Series [2] is described as follows: Stability in mouse hepatocytes. The series is classed as in vitro ADME.
Series [3] is described as follows: Pharmacokinetic study, oral administration in mice. It counts as in vivo, mouse. How it is done: Mice were dosed orally with 10mg/kg Poloppin-II, and blood samples were taken from 3 mice per time point, and frozen until all samples were available. Plasma was prepared from each sample and Poloppin-II levels analysed by a pre-established methodology (UHPLC-TOF MS using electrospray ionisation).

Series [4] is described as follows: Tolerability and body weight in the xenograft study. It counts as in vivo, mouse. The note with it: 50 mg/kg oral, mice; no adverse health observations or recorded weight loss. The protocol: as §1
The target of series [5] is T1, PLK1 (Homo sapiens, UniProt P53350).
T1 construct: endogenous in cells; host or cells: HeLa cell lysate
Description: Cellular thermal shift assay (CeTSA / ITDRF-CeTSA) in HeLa cell lysates. It counts as binding. The protocol: Two million HeLa cells were assessed for viability using Trypan blue and aliquoted into PCR tubes for lysate preparation and CeTSA. Aggregation temperature (Tagg) was determined for PLK1 PBD with a Biorad Tetrad gradient maker, using a final concentration of 1mM or 0.5mM for Poloppin or Poloppin-II, respectively, in 5% DMSO ([Jafari et al., 2014]). Samples were assessed using PLK1 antibodies (Invitrogen 33-1700) and GAPDH (Santa Cruz sc137179) and Li-Cor antibody (926-32252). Quantification was done with Odyssey Li-Cor technology.

Series [6] relates to U2OS cells. In words: Quantification of mitotic phenotypes by immunofluorescence. The note with it: 12.5 μM. It counts as cell-based, human. The protocol:
Cells were plated on glass coverslips and incubated overnight. Cells were treated with compound diluted in medium for 24hrs. Medium was then removed and cells fixed in 20mM PIPES pH8, 20mM HEPES pH8, 5mM EGTA, 2mM MgCl, 0.2% Triton X-100 and 3.7% formaldehyde. Cells were washed in PBS containing 0.1% Tween-20 then incubated with anti-alpha tubulin antibody (Santa Cruz sc-32293) and anti-CREST antibody (Europa 90C-CS1058). Cells were washed then incubated with Alexa Fluor 568 labelled goat anti-mouse IgG (Invitrogen A11031) or Alexa Fluor 633 labelled goat anti-mouse IgG (Invitrogen A21052) and Alexa Fluor 488 goat anti-human IgG (Invitrogen A11013). Cells were washed and then mounted on glass slides in Vectashield mounting medium containing DAPI.

The subject of series [7] is MEFs KRAS WT p53 MUT. In words: Cell viability in MEFs, KRAS WT p53 MUT. The note with it: Mus musculus. The series is classed as cell-based. How it is done:
KrasWT mouse embryonic fibroblasts (MEFs) were derived from conditional LSL-Trp53^R172H/+ embryos. LSL-Trp53^R172H/+, LSL-Kras^G12D/+ ([Hingorani et al., 2005]) strains were interbred to obtain LSL-Kras^G12D/+, LSL-Trp53^R172H/+ Kras^G12D embryos for MEF preparation. Briefly, MEFs were derived from E13.5 embryos after decapitation and evisceration. Finely minced tissue was passed through a 16-G needle two or three times before dissociated cells were cultured in DMEM with 10% FBS. Cre-mediated recombination to activate the Kras^G12D allele was induced via addition of 500nM 4-OH Tamoxifen to the culture media overnight.

Series [8] has as its system HeLa. Description: GI50 for cell killing, HeLa. The note with it: Homo sapiens. The series is classed as cell-based.
In series [9] the test system is HCT116 BI 2536-Res. Clones. In words: Viability of BI 2536-resistant HCT116 clones. It counts as cell-based, human. How it is done:
Viability is represented as percentage survival normalised to DMSO control. […] PCR reactions were carried out using Amplitaq Gold polymerase (Applied Biosystems N8080241) with a 25-cycle programme. […] Prepared samples were submitted for next generation sequencing using MiSeq Nano run with Nextera XT library preparation. Sequencing and subsequent bioinformatics were performed by Cambridge Genomic Services (University Of Cambridge).

Broadly, the half-life is how long it takes for the measured level to halve. A higher half-life goes with slow decline. As usually defined, the hepatocyte CLint is the rate of metabolic loss divided by the concentration. Lower therefore signals slow turnover. Usually bioavailability stands for dose-corrected exposure relative to a reference, in per cent. High values mean much systemic uptake, low ones little systemic uptake. For orientation: GI50 means the concentration giving 50% growth inhibition.

T1 sequence (P53350 whole entry): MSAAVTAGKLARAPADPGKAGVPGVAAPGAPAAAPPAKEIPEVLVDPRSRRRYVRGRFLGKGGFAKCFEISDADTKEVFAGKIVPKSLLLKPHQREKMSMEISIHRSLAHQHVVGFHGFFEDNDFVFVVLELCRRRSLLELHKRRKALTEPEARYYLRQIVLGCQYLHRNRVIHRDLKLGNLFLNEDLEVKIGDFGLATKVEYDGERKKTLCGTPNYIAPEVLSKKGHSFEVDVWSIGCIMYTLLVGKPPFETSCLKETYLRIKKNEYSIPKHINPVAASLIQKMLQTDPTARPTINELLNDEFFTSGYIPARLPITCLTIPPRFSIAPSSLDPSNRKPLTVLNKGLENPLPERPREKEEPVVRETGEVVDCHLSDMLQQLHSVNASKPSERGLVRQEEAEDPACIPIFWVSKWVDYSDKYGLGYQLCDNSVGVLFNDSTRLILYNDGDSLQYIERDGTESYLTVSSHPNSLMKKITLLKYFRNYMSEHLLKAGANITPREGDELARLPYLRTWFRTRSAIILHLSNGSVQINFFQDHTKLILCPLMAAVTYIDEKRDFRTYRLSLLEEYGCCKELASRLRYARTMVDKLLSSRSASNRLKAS

Take `CN(C)CCNC(=O)c1ccc(-c2ccc(-c3ccc(Cl)cc3)n2-c2ccccc2C(F)(F)F)cc1` [Poloppin-II]: in series [1] (50 mg/kg oral, HCT116 KRAS G13D), the “growth of xenografted tumors” value was “reduced the growth of xenografted tumors”. Also, the Group Mean at Day 15 (tumour volume) in series [1] (50mg/kg oral every three days) came out at 415 mm³; in series [1] (200mg/kg oral, treatment suspended after seven days), 371 mm³. In addition, the half-life in series [2] is 1.28 h; in series [3] (mouse, plasma, per oral, 10 mg/kg), 15 h. The same molecule had a hepatocyte CLint in series [2] of 18 µL/min/1e6 cells. The bioavailability in series [3] (mouse, plasma, 10 mg/kg oral) is greater than 90%. In addition, in series [3] (mouse, plasma, oral, 10 mg/kg, read-out: calculated clearance), the clearance is 1.02 L/h/kg. Further, the Vd in series [3] (mouse, plasma, oral, 10 mg/kg, read-out: volume of distribution) is 23 L/kg. For the same molecule, in [3] (single oral dose of 10 mg/kg), the “time for which plasma concentration >100 nM is maintained” value was greater than 24 h. Besides, the “in vivo plasma concentration maintained” value in [3] (single oral dose of 10 mg/kg, for >24 hr) is recorded as greater than 100 nM. In addition, the “tolerability during the study” value in series [4] is “well tolerated”.
Take `O=C(O)CCc1ccc(-c2ccc(Br)cc2)n1-c1ccccc1C(F)(F)F` [Poloppin]: the “concentration at which cellular PLK1 is stabilized (ITDRF-CeTSA)” value in [5] (cell lysates at a constant 67°C) was greater than 40 µM. For the same molecule, the “thermal stability of PLK1 protein (CeTSA)” value in series [5] (fixed dose of 1 mM, HeLa cell lysates, compared with control) is reported as “increased thermal stability”. The “cells with normal metaphase chromosome alignment” value in series [6] was less than 5%. Moreover, the GI50 was 51.1 ± 1.05 µM in [7] (MEFs KRAS WT p53 MUT); 43.7 ± 1.09 µM in series [7] (MEFs KRAS WT p53 MUT+4OHT); 10 µM in series [8]; “retain sensitivity” in series [9] (BI2536-Res. (Mean), 72 h); 7.7 µM in series [9] (Homo sapiens, HCT-116, 72 h).
